Measurements from patent US9399645B2, “Inhibitors of HIV replication” (Boehringer Ingelheim International GmbH, priority 2011, dated 2016).

What was measured:
[1] = Caco-2 Permeability Assay; format: in vitro ADME; conditions: human; for Papp A→B at 10 μM: apparent permeability A to B, compound at 10 μM, apical buffer pH 6.0, basolateral buffer pH 7.4, read-out: Papp (cm/sec, *10^−6)
Source text: Caco-2 Permeability Assay Caco-2 cells are purchased from Cell Culture Services as frozen instant cells at a concentration of 1*10^7 cells/vial. DMEM+glutamax-I culture media is purchased from Gibco (10569). Fetal bovine serum (FBS) is purchased from HyClone (SH30396.03). Pennicilin/Streptomycin antibiotics are purchased from Gibco (15140). MEM non-essential amino acids are purchased from Gibco (11140). Hank's balanced salt solution (HBSS) is purchased from Gibco (14025). Bovine serum albumin (BSA) is purchased from Sigma-Aldrich (A7906). MES low moisture is purchased from Sigma-Aldrich (M3671). HEPES is purchased from Sigma-Aldrich (H3375). Dimethyl Sulfoxide (DMSO) is purchased from EMD (MX1457-6). Complete DMEM media is prepared by adding 1 L of FBS, 100 mL of pen/strep and 110 mL of MEM non essential amino acids to 10 L of DMEM+glutamax-I. […] Caco-2 cells are seeded on HTS transwell 24-well plates purchased from Corning (3397). These polycarbonate membrane plates have a diameter of […] and pore size of 0.4 μm. The Caco-2 cells vial is thawed in a 37° C. water bath until only a small ice pellet is left. The vial is then transferred to the laminar flow hood and its exterior is extensively washed with 70% ethanol. The total content of the vial (2 mL) is transferred into a 50 mL tube containing 38 mL of complete DMEM. […] The seeding is done by the Hamilton star robotic station which is controlled with the Venus program. Each well will receive 600 μL of complete DMEM on its basolateral side and 200 μL of cells on its apical side. Each well receives 50 000 cells. The 24-well plates are then returned to an automated Liconic STX110 incubator set at 37° C., 5% CO2 and 100% humidity. The culture media for the cells is changed every two days except on weekends. These cells are maintained for a period of two weeks prior to the running of the permeability assay. Permeability assays are usually performed between day 15 and 18 after the initial seeding. […] Controls for the assay are mannitol for tight junction determination and Digoxin for efflux transporter (p-glycoprotein) expression. On the day of the assay, each compound is diluted to 10 μM in the buffer (apical for A to B). 6 μl of the 5 mM DMSO stock is added to 3 mL of the buffer in a 24-well 10 mL deep plate covered with a lid. The plate containing all the diluted compounds is spun for 10 min at 3000 rpm in a Rotanta 46 RSC centrifuge from Hettich to remove unsoluble compound. This dilution is used to add at the start of the incubation. Each compound is tested in duplicate. On the day of the assay, the culture media of the 24-well plate is removed and replaced with warm HBSS. The HBSS is then also removed and the Apical and Basolatral buffer are added to their respective side of the transwells. These steps are performed by the Hamilton Star robotic station. The plate is then placed in a 37° C. incubator and is left to equilibrate for 30 min. After 30 min of incubation a background sample (25 μL from each well) is taken from the receiver side (Basolateral for A to B), and replenished with warm buffer. These samples and all others afterwards are kept in a 96-well 1 mL plate. To start the assay, the donor compartment (apical for A to B) is emptied and replaced with new buffer containing the compound at 10 μM. Once the compounds are added, the plate is returned to the 37° C. incubator and the timer is started. In order to determine how much compound is actually added to each well, a 50 μL sample is taken from each compound dilution, this sample is refered to as the load. These steps and the following are performed by the Tecan Freedom EVO robotic station controlled via the Gemini software. For A-to-B Assay: Samples (190 μL) are taken from each basolateral (receiver) chamber at time points 0, 60, 120 and 180 min or at time points 0, 30, 60 and 90 min. From the 190 μL taken, 50 μL is transferred to the receiving plate and 140 μL is discarded.

HIV-1 = experiment: C8166 HIV-1 Luciferase Assay (EC50); format: cell-based; conditions: Human immunodeficiency virus 1, C8166, 72 h
Method: C8166 HIV-1 Luciferase Assay (Ec50)
The assay used to measure inhibition of HIV replication is as described in WO 2004/050643, pages 73-75, incorporated herein by reference, with the following modifications:
Serial dilutions of HIV-1 inhibitors are prepared in complete media from DMSO stock solutions. Eleven serial dilutions of desired concentration are prepared in a 1 mL deep well titer plate (96 wells). The 12th well contains complete media with no inhibitor and serves as the positive control. All samples contain the same concentration of DMSO (<0.1% DMSO). Inhibitor is added, to triplicate wells, of a 96 well tissue culture treated clear view black microtiter plate (Corning Costar catalogue #3904). The total volume per well is 200 μL of media containing the cells and inhibitor. The last row is reserved for uninfected C8166 LTRIuc cells to serve as the background blank control and the first row is media alone.
Count C8166 LTRIuc cells and place in a minimal volume of complete RPMI 1640 in a tissue culture flask (ex. 30×10^6 cells in 10 mL media/25 cm^2 flask). Infect cells with HIV-1 at a moi of 0.005. Incubate cells for 1.5 h at 37° C. on a rotating rack in a 5% CO2 incubator. Resuspend cells in complete RPMI to give a final concentration of 25,000-cells/well. Add cells to wells of 96 well microtiter plate containing inhibitors. Add 25,000 uninfected C8166-LTRIuc cells/well in 200 μL complete RPMI to last row for background control. Incubate cells at 37° C. in 5% CO2 incubator for 3 days.
50 μL Steady Glo (luciferase substrate T112=5 hours Promega catalogue # E2520) is added to each well of the 96 well plate. The relative light units (RLU) of luciferase are determined using a luminescence plate reader. The calculated % inhibition values are used to determine EC50, slope factor (n) and maximum inhibition (Imax).

SMILES	Papp A→B at 10 μM [1] [×10⁻⁶ cm/s]	EC50 (HIV-1) [nM]	Papp A→B [1] [×10⁻⁶ cm/s]
CC[C@H]1C[C@@H](n2c(=O)nc(-c3cnn(C)c3)c3oc4cc(F)c(-c5cnn(C)c5)cc4c32)CCO1 [Compound 1042]	23.4	6.9	–
CC[C@H]1C[C@@H](n2c(=O)nc(-c3cnn(C)c3)c3oc4cc(F)c(-c5cnc(C)o5)cc4c32)CCO1 [Compound 1044]	12.4	22	–
CC[C@H]1C[C@@H](n2c(=O)nc(-c3cnn(C)c3)c3oc4cc(F)c(-c5ccc(CO)nc5)cc4c32)CCO1 [Compound 1045]	9.4	17.3	–
CC[C@H]1C[C@@H](n2c(=O)nc(-c3cnn(C)c3)c3oc4cc(F)c(-c5ccc(C(C)O)nc5)cc4c32)CCO1 (stereo partly drawn) [Compound 1046]	17.9	110	–
CC[C@H]1C[C@@H](n2c(=O)nc(-c3cnn(C)c3)c3oc4cc(Cl)c(-c5cnn(C)c5)cc4c32)CCO1 [Compound 1048]	22.1	6	–
CC[C@H]1C[C@@H](n2c(=O)nc(-c3cnn(C)c3)c3oc4cc(C)c(-c5cnn(C)c5)cc4c32)CCO1 [Compound 1050]	19.1	7.7	–
CC[C@H]1C[C@@H](n2c(=O)nc(-c3cnn(C)c3)c3oc4cc(C#N)c(-c5cccnc5)cc4c32)CCO1 [Compound 1051]	15.4	220	–
C[C@@H]1C[C@H](n2c(=O)nc(-c3cnn(C)c3)c3oc4cc(C#N)c(-c5cnn(C)c5)cc4c32)C[C@H](C)O1 [Compound 1052]	18.2	150	–
CC[C@H]1C[C@@H](n2c(=O)nc(-c3cnn(C)c3)c3oc4cc(C#N)c(-c5cnn(C)c5)cc4c32)C[C@@H](C)O1 [Compound 1053]	22.2	43	–
CC[C@H]1C[C@@H](n2c(=O)nc(-c3cnn(C)c3)c3oc4cc(C#N)c(-c5ccn(C)n5)cc4c32)CCO1 [Compound 1054]	20.3	32.2	–
CC[C@H]1C[C@@H](n2c(=O)nc(-c3cnn(C)c3)c3oc4cc(OC)c(-c5cnn(C)c5)cc4c32)CCO1 [Compound 1055]	8.42	3.6	–
COc1cc2oc3c(-c4cnn(C)c4)nc(=O)n(CC[C@@H]4CCCO4)c3c2cc1-c1cnn(C)c1 [Compound 1056]	6.7	8.3	–
CC[C@H]1C[C@@H](n2c(=O)nc(-c3cnn(C)c3)c3oc4c(OC)cc(-c5cnn(C)c5)cc4c32)CCO1 [Compound 1057]	14.9	2.2	–
CC[C@H]1C[C@@H](n2c(=O)nc(-c3cnn(C)c3)c3oc4c(C)cc(-c5cnn(C)c5)cc4c32)CCO1 [Compound 1058]	16.6	0.6	–
CC[C@H]1C[C@@H](n2c(=O)nc(-c3cnn(C)c3)c3oc4c(C#N)c(C)c(-c5cnn(C)c5)cc4c32)CCO1 [Compound 1060]	13	140	–
CC[C@H]1C[C@@H](n2c(=O)nc(-c3cnn(C)c3)c3oc4ncc(-c5cnn(C)c5)cc4c32)CCO1 [Compound 1061]	9.3	20.3	–
CNc1ccc(-c2nc(=O)n(CCC3CCCO3)c3c2oc2ncc(-c4cnco4)cc23)cn1 (stereo not drawn) [Compound 1066]	8.3	110	–

SMILES	Papp A→B at 10 μM [1] [×10⁻⁶ cm/s]	EC50 (HIV-1) [nM]	Papp A→B [1] [×10⁻⁶ cm/s]
CCn1cc(-c2cnc3oc4c(-c5ccc(NC)nc5)nc(=O)n(CCC5CCCCO5)c4c3c2)cn1 (stereo not drawn) [Compound 1067]	5.3	40	–
CNc1ccc(-c2nc(=O)n(CCC3CCCO3)c3c2oc2ncc(-c4cnn(CC5CC5)c4)cc23)cn1 (stereo not drawn) [Compound 1068]	8.1	78	–
CC[C@H]1C[C@@H](n2c(=O)nc(-c3cnn(CC)c3)c3oc4ncc(-c5cnn(CC)c5)cc4c32)CCO1 [Compound 1072]	21.4	110	–
Cn1cc(-c2cnc3oc4c(-c5cnn(C)c5)nc(=O)n(CCC5CCCCO5)c4c3c2)cn1 (stereo not drawn) [Compound 1074]	11	90	–
CC[C@H]1C[C@@H](n2c(=O)nc(-c3cnn(C)c3)c3oc4cnc(-c5cnn(C)c5)cc4c32)CCO1 [Compound 1076]	–	5.9	17.9
CC[C@H]1C[C@@H](n2c(=O)nc(-c3ccc(NC)nc3)c3oc4cnc(-c5cnn(C)c5)cc4c32)CCO1 [Compound 1077]	14.7	6	–
CC[C@H]1C[C@@H](n2c(=O)nc(-c3cnn(C)c3)c3oc4nc(C)c(-c5cnco5)cc4c32)CCO1 [Compound 1080]	12.4	120	–
CC[C@H]1C[C@@H](n2c(=O)nc(-c3cnn(C)c3)c3oc4c(C)nc(-c5cnn(C)c5)cc4c32)CCO1 [Compound 1082]	18.9	3.3	–
CC[C@H]1C[C@@H](n2c(=O)nc(-c3cnn(C)c3)c3oc4ncc(-c5cccnc5)cc4c32)CCO1 [Compound 1083]	12.5	41	–
C[C@@H]1C[C@H](n2c(=O)nc(-c3cnn(C)c3)c3oc4cnc(-c5cnn(C)c5)cc4c32)C[C@H](C)O1 [Compound 1084]	20.5	120	–
CC[C@H]1C[C@@H](n2c(=O)nc(-c3cnn(C)c3)c3oc4cnc(-c5cnn(CCOC)c5)cc4c32)CCO1 [Compound 1085]	19.2	120	–
CC[C@@H]1C[C@H](n2c(=O)nc(-c3cnn(C)c3)c3oc4cnc(-c5cccnc5)cc4c32)CCO1 [Compound 1086]	22.5	18	–
CC[C@H]1C[C@@H](n2c(=O)nc(-c3cnn(C)c3)c3oc4cnc(-c5cnn(C)c5)cc4c32)CCCO1 [Compound 1087]	23.1	9.7	–
CC[C@H]1C[C@@H](n2c(=O)nc(-c3cnn(C)c3)c3oc4cnc(-c5cnc(C)o5)cc4c32)CCO1 [Compound 1088]	22.9	36.2	–
CC[C@H]1C[C@@H](n2c(=O)nc(-c3cnn(C)c3)c3oc4cnc(-c5cnco5)cc4c32)CCO1 [Compound 1089]	18.6	30	–
CC[C@H]1C[C@@H](n2c(=O)nc(-c3cnn(C)c3)c3oc4cnc(-n5ccnc5)cc4c32)CCO1 [Compound 1090]	8.7	160	–
